According to ChEMBL document CHEMBL1777801, “3-Oxo-2-piperazinyl acetamides as potent bradykinin B1 receptor antagonists for the treatment of pain and inflammation” (Bioorg Med Chem Lett, 2011):

Columns and labels:
[1] = Clearance in rhesus monkey at 1 mg/kg, iv; format: ADME, organism-based, Macaca mulatta; set-up: dose 1 mg/kg, route intravenous; details: in vivo
[2] = Half life in Sprague-Dawley rat at 1 mg/kg, iv administered as bolus dose; format: ADME, organism-based; set-up: dose 1 mg/kg, route intravenous; details: in vivo
in vivo [3] = details: Sprague-Dawley, rat, iv, 1 mg/kg
[4] = Clearance in rabbit at 1 mg/kg, iv; format: ADME, organism-based, Oryctolagus cuniculus; set-up: dose 1 mg/kg, route intravenous; details: in vivo
[5] = Half life in rhesus monkey at 1 mg/kg, iv; format: ADME, organism-based, Macaca mulatta; set-up: dose 1 mg/kg, route intravenous; details: in vivo
in vivo [6] = details: Sprague-Dawley, rat, iv, 1 mg/kg; remark: listed apart in the source
[7] = Volume of distribution at steady state in dog at 1 mg/kg, iv; format: ADME, organism-based, Canis lupus familiaris; set-up: dose 1 mg/kg, route intravenous; details: in vivo, read-out: Vdss
[8] = Volume of distribution at steady state in rabbit at 1 mg/kg, iv; format: ADME, organism-based, Oryctolagus cuniculus; set-up: dose 1 mg/kg, route intravenous; details: in vivo, read-out: Vdss
[9] = Oral bioavailability in mouse at 10 mg/kg; format: ADME, organism-based; details: in vivo
[10] = Half life in mouse at 1 mg/kg, iv; format: ADME, organism-based; set-up: dose 1 mg/kg, route intravenous; details: in vivo
[11] = Half life in rabbit at 1 mg/kg, iv; format: ADME, organism-based, Oryctolagus cuniculus; set-up: dose 1 mg/kg, route intravenous; details: in vivo
[12] = Clearance in dog at 1 mg/kg, iv; format: ADME, organism-based, Canis lupus familiaris; set-up: dose 1 mg/kg, route intravenous; details: in vivo
[13] = Volume of distribution at steady state in cynomolgus monkey at 1 mg/kg, iv; format: ADME, organism-based, Macaca fascicularis; set-up: dose 1 mg/kg, route intravenous; details: in vivo, read-out: Vdss
[14] = Clearance in mouse at 1 mg/kg, iv; format: ADME, organism-based; set-up: dose 1 mg/kg, route intravenous; details: in vivo
[15] = Oral bioavailability in rabbit at 5 mg/kg; format: ADME, organism-based, Oryctolagus cuniculus; details: in vivo
[16] = Oral bioavailability in dog at 3 mg/kg; format: ADME, organism-based, Canis lupus familiaris; details: in vivo
[17] = Oral bioavailability in rhesus monkey at 5 mg/kg; format: ADME, organism-based, Macaca mulatta; details: in vivo
[18] = Half life in dog at 1 mg/kg, iv; format: ADME, organism-based, Canis lupus familiaris; set-up: dose 1 mg/kg, route intravenous; details: in vivo
[19] = Clearance in cynomolgus monkey at 1 mg/kg, iv; format: ADME, organism-based, Macaca fascicularis; set-up: dose 1 mg/kg, route intravenous; details: in vivo
[20] = Volume of distribution at steady state in rhesus monkey at 1 mg/kg, iv; format: ADME, organism-based, Macaca mulatta; set-up: dose 1 mg/kg, route intravenous; details: in vivo, read-out: Vdss
[21] = Half life in cynomolgus monkey at 1 mg/kg, iv; format: ADME, organism-based, Macaca fascicularis; set-up: dose 1 mg/kg, route intravenous; details: in vivo
in vivo [22] = details: Sprague-Dawley, rat, po, 10 mg/kg
[23] = Volume of distribution at steady state in mouse at 1 mg/kg, iv; format: ADME, organism-based; set-up: dose 1 mg/kg, route intravenous; details: in vivo, read-out: Vdss
[24] = Oral bioavailability in cynomolgus monkey at 5 mg/kg; format: ADME, organism-based, Macaca fascicularis; details: in vivo

SMILES: Cc1ccc(S(=O)(=O)N2CCNC(=O)[C@H]2CC(=O)N[C@@H]2CCCc3cc(CN4CCCCC4)ccc32)cc1
- clearance [1]: 30 mL/min/kg
- half-life [2]: 4.8 h
- Vd (in vivo [3]): 9.3 L/kg
- clearance [4]: 53.3 mL/min/kg
- half-life [5]: 3.2 h
- clearance (in vivo [6]): 123 mL/min/kg
- Vd [7]: 16.2 L/kg
- Vd [8]: 6.4 L/kg
- bioavailability [9]: 6%
- half-life [10]: 1.4 h
- half-life [11]: 2.4 h
- clearance [12]: 63.3 mL/min/kg
- Vd [13]: 1.6 L/kg
- clearance [14]: 133 mL/min/kg
- bioavailability [15]: 5%
- bioavailability [16]: 24%
- bioavailability [17]: 23%
- half-life [18]: 4.6 h
- clearance [19]: 10 mL/min/kg
- Vd [20]: 5.9 L/kg
- half-life [21]: 5.6 h
- bioavailability (in vivo [22]): 6%
- Vd [23]: 6 L/kg
- bioavailability [24]: 17%

SMILES: O=C(C[C@@H]1C(=O)NCCN1S(=O)(=O)c1ccccc1)N[C@@H]1CCCc2cc(CN3CCCCC3)ccc21
- Vd (in vivo [3]): 9.9 L/kg
- clearance (in vivo [6]): 90 mL/min/kg

SMILES: O=C(C[C@@H]1C(=O)NCCN1S(=O)(=O)c1ccc(Cl)cc1)N[C@@H]1CCCc2cc(CN3CCCCC3)ccc21
- Vd (in vivo [3]): 11.9 L/kg
- clearance (in vivo [6]): 112 mL/min/kg
- bioavailability (in vivo [22]): 19%

SMILES: Cc1ccc(S(=O)(=O)N2CCNC(=O)[C@H]2CC(=O)N[C@@H]2CCCc3cc(CNC(C)(C)C)ccc32)cc1
- Vd (in vivo [3]): 8.34 L/kg
- clearance (in vivo [6]): 56.7 mL/min/kg
- bioavailability (in vivo [22]): 0.3%

SMILES: Cc1ccc(S(=O)(=O)N2CCNC(=O)[C@H]2CC(=O)N[C@@H]2CCCc3cc(CNCC(C)(C)C)ccc32)cc1
- Vd (in vivo [3]): 3.4 L/kg
- clearance (in vivo [6]): 30 mL/min/kg
- bioavailability (in vivo [22]): 16%
